Here are results for 30 molecules from paper PMC7765920 (Molecules, 2020).

Where two headings read alike, the source gives them in different places. Marks after values point to notes of the source that are not given here. Where only a bound is given, the exact number is not on record here.

Common to all, as to format: biochemical
For assay [1], the target named is T1, human recombinant MAO-A (Homo sapiens, UniProt P21397).
T1 sequence (P21397 1-527): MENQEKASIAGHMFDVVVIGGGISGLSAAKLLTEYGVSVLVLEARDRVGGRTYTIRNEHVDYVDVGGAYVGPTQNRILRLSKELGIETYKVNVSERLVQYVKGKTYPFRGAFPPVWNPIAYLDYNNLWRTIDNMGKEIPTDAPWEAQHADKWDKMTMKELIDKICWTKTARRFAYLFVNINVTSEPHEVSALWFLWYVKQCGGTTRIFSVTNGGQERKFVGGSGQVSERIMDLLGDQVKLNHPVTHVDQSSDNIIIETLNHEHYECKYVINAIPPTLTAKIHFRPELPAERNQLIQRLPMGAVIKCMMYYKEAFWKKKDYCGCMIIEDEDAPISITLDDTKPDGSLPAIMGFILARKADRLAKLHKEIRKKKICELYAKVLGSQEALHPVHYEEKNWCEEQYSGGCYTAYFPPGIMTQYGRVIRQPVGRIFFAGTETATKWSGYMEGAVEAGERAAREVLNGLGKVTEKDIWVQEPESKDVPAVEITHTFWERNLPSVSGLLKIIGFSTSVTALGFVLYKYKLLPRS
As to the kind of experiment: MAO-GLO luminescence assay of MAO-A catalytic activity. As to conditions: for remaining activity at 1 µM: read-out: MAO-A residual activity. The procedure:
(§1) Optimization of the compounds, however, aimed predominantly at elimination of MAO-A-inhibitory activity while keeping DYRK1A inhibitory potency, and not at achieving high selectivity for DYRK1A over CLK1. The tests were performed as described by us before in detail. Due to the very large number of test compounds (more than 60), a first screening was performed at a single inhibitor concentration of 1 µM.
(§2) Inhibitors were dissolved in DMSO at a concentration of 10 mM and stored at […]. Working solutions were prepared to achieve a final concentration of 1 µM in the enzyme assays.
Catalytic activity of monoamine oxidase A (MAO-A) was measured by using the luminescence-based MAO-GLO^TM Assay from Promega. Recombinant MAO-A converts a luminogenic MAO substrate into luciferin, which is, in turn, luminometrically detected in a luciferase reaction. The amount of light produced is directly proportional to MAO activity. […] Inhibitory effects of the tested compounds were calculated relative to the activity of control reactions that were run in the absence of inhibitors.

In assay [2] the target is T2, GST-DYRK1A-ΔC (amino acids 1–499 of rat DYRK1A) (Rattus norvegicus, UniProt Q63470).
T2 construct: containing amino acids 1–499 of rat DYRK1A; made in house; host or cells: E. coli
As to the kind of experiment: Kinase-GLO luminescent assay of DYRK1A catalytic activity. To be noted: for remaining activity at 1 µM: read-out: DYRK1A residual activity. The procedure: as §1, §2
(§3) Recombinant kinases were purified from E. coli as GST (glutathione S-transferase) fusion constructs by affinity adsorption to glutathione-Sepharose. […] Catalytic activity of the kinases was measured with the help of the Kinase-GLO^TM Luminescent Assay from Promega. Assays were performed in a total volume of 10 μL in kinase buffer (25 mM Hepes pH 7.4, 0.5 mM DTT, 5 mM MgCl2, 5 μM ATP) with appropriate peptide substrates (20 μM DYRKtide for the DYRKs and 100 μM DYRKtide for HIPK2, […]; or 100 μM RS peptide for CLK1, […]). Kinases amounts in the assays were adjusted so that approximately 90% of the ATP in the assay was consumed in control samples without inhibitor. Kinase reactions were incubated at room temperature for 30 min before 10 μL Kinase-GLO reagent was added for luminometric measurement of the ATP that was not consumed by the kinases. After incubation at room temperature for an additional 10 min, luminescence was recorded for 1 s (Berthold Orion Microplate Luminometer). ATP consumption in the control samples without inhibitor was set as 100% catalytic activity, and the inhibitory effects of the test compounds were calculated relative to this value.

For assay [3], the target named is T3, GST-CLK1cat (amino acids 141–484 of human CLK1) (Homo sapiens, UniProt P49759).
T3 construct: containing amino acids 141–484 of human CLK1; made in house; host or cells: E. coli
As to the kind of experiment: Kinase-GLO luminescent assay of CLK1 catalytic activity. To be noted: for remaining activity at 1 µM: read-out: CLK1 residual activity. The procedure:
as §1, §2, §3
A general note: Kinase-Glo reads ATP consumption through a luciferase reaction.

[4] abbreviates: 1 µM inhibitor concentration, residual activity relative to control without inhibitor.

T3 sequence (P49759 141-484): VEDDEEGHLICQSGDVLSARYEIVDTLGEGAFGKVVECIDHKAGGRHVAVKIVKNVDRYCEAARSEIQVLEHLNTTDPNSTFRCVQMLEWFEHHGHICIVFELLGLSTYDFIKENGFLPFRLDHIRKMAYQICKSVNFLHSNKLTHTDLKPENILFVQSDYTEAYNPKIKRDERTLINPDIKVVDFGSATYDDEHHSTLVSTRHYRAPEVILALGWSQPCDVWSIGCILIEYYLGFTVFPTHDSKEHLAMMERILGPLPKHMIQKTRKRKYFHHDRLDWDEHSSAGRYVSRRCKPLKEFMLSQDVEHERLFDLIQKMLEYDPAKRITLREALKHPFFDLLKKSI

Regarding “7-Methoxy-1-methyl-9-(prop-2-yn-1-yl)-9H-pyrido[3,4-b]indole [AnnH70]”, the MAO-A residual activity in assay [1] (setting [4]) came to 18%. The DYRK1A residual activity in assay [2] (setting [4]) came to 6%. The CLK1 residual activity in assay [3] (setting [4]) is 17 *** %.
On to `COc1ccc2c(c1)C(O)c1c-2ccnc1C` (racemic) [AnnHT3, (±)-7-Methoxy-1-methyl-9H-indeno-[2,1-c]pyridin-9-ol], for which the results for the remaining activity at 1 µM in assay [1] (setting [4]), in assay [2] (setting [4]) and in assay [3] (setting [4]) were 34%, 59% and 76%, respectively.
For `COc1ccc2c3ccnc(C)c3n(C)c2c1` [AnnH1], the figures for the remaining activity at 1 µM in assay [1] (setting [4]) and in assay [3] (setting [4]) were 2% and 6%, respectively.
Taken in the same sequence, the figures for `CCCCn1c2cc(OC)ccc2c2ccnc(C)c21` [AnnH3, 9-Butyl-7-methoxy-1-methyl-9H-pyrido[3,4-b]indole] were 10% and 24%.
`COc1ccc2c3ccnc(C)c3n(Cc3ccccc3)c2c1` [AnnH4, 9-Benzyl-7-methoxy-1-methyl-9H-pyrido[3,4-b]indole]: the figures for the remaining activity at 1 µM in assay [1] (setting [4]) and in assay [2] (setting [4]) were 80% and 88%, respectively.
The matching figures for `COc1c(Br)cc2c([nH]c3c(C)nccc32)c1Br` [AnnH5_1]: 70% and 101%.
Taken in the same sequence, the figures for `COc1cc2[nH]c3c(C)nccc3c2cc1Br` [AnnH5_2] were 7% and 88%.
For `COc1ccc2c([nH]c3c(C)nccc32)c1Br` [AnnH5_3, 8-bromo-7-methoxy-1-methyl-9H-pyrido[3,4-b]indole], the remaining activity at 1 µM in assay [1] (setting [4]) came to 8%; in assay [2] (setting [4]) it was 95%.
For the molecule `COc1c(Br)cc2c([nH]c3c(C)nc(Br)cc32)c1Br` [AnnH5_4, 3,6,8-tribromoharmine], the remaining activity at 1 µM in assay [2] (setting [4]) was 126%.
In the case of `COc1ccc2c([nH]c3c(C)nccc32)c1Cl` [AnnH6_1, 8-chloro-7-methoxy-1-methyl-9H-pyrido[3,4-b]indole], the values for the remaining activity at 1 µM in assay [1] (setting [4]) and in assay [2] (setting [4]) were 16% and 97%, respectively.
Taken in the same sequence, the figures for `COc1c(Cl)cc2c([nH]c3c(C)nccc32)c1Cl` [AnnH6_3_1] were 64% and 99%.
Taken in the same sequence, the figures for `COc1cc2[nH]c3c(C)nccc3c2cc1Cl` [AnnH6_3_2, 6-chloro-7-methoxy-1-methyl-9H-pyrido[3,4-b]indole] were 9% and 92%.
The matching figures for `CCCCn1c2c(C)nccc2c2ccc(OC)c(Br)c21` [AnnH9, 8-Bromo-9-butyl-7-methoxy-1-methyl-9H-pyrido[3,4-b]indole]: 8% and 96%.
As to `CCCCn1c2c(C)nccc2c2ccc(OC)c(Cl)c21` [AnnH11, 9-Butyl-8-chloro-7-methoxy-1-methyl-9H-pyrido[3,4-b]indole], the remaining activity at 1 µM in assay [1] (setting [4]) came to 4%; in assay [2] (setting [4]), 104%; in assay [3] (setting [4]), 60%.
The matching figures for `CCOC(=O)Cn1c2cc(OC)ccc2c2ccnc(C)c21` [AnnH12, Ethyl 2-(7-methoxy-1-methyl-9H-pyrido[3,4-b]indol-9-yl)acetate]: 101%, 30% and 45%.
The matching figures for `CCCCn1c2cc(OC)c(Cl)cc2c2ccnc(C)c21` [AnnH14, 9-Butyl-6-chloro-7-methoxy-1-methyl-9H-pyrido[3,4-b]indole]: 56%, 94% and 62%.
As for `COc1ccc2c3ccnc(C)c3n(CCN(C)C)c2c1` [AnnH16, [2-(7-Methoxy-1-methyl-9H-pyrido[3,4-b]indol-9-yl)-ethyl]-dimethylamine], the values for the remaining activity at 1 µM in assay [1] (setting [4]) and in assay [2] (setting [4]) were 103% and 107%, respectively.
For `COc1ccc2c(c1)[nH]c1c(/C=C/c3ccccc3)nccc12` [AnnH18], the remaining activity at 1 µM in assay [1] (setting [4]) was found to be 100%; in assay [2] (setting [4]), 27%; in assay [3] (setting [4]), 58%.
Turning to `COc1ccc2c3c([nH]c2c1)C(=O)NCC3` [AnnH19, 7-methoxy-2,3,4,9-tetrahydro-1H-pyrido[3,4-b]indol-1-one], the figures for the remaining activity at 1 µM in assay [2] (setting [4]) and in assay [3] (setting [4]) were 122% and greater than 90%, respectively.
As to `COc1ccc2c(c1)[nH]c1c(=O)[nH]ccc12` [AnnH20, 7-Methoxy-2,9-dihydro-1H-pyrido[3,4-b]indol-1-one], the remaining activity at 1 µM in assay [1] amounted to 127%.
Turning to `COc1ccc2c3ccnc(C)c3n(C/C=C/c3ccccc3)c2c1` [AnnH22, 7-Methoxy-1-methyl-9-((E)-3-phenylallyl)-9H-pyrido[3,4-b]indole], the remaining activity at 1 µM was 39% in assay [1] (setting [4]), 3% in assay [2] (setting [4]) and 15% in assay [3] (setting [4]).
As to `COc1ccc2c(c1)[nH]c1c(Cl)nccc12` [AnnH24, 1-chloro-7-methoxy-9H-pyrido[3,4-b]indole], the remaining activity at 1 µM is 103% in assay [1] and 17% in assay [3] (setting [4]).
As to `COc1ccc2c3ccnc(C)c3n(CC(=O)O)c2c1` [AnnH25, 2-(7-Methoxy-1-methyl-9H-pyrido[3,4-b]indol-9-yl)acetic acid], the remaining activity at 1 µM in assay [1] (setting [4]) worked out at 6%; in assay [3] (setting [4]), 34%.
In the case of `COc1ccc2c3ccnc(C)c3n(CC(=O)OC(C)C)c2c1` [AnnH27, Isopropyl 2-(7-methoxy-1-methyl-9H-pyrido[3,4-b]indol-9-yl)acetate], the results for the remaining activity at 1 µM in assay [1] (setting [4]), in assay [2] (setting [4]) and in assay [3] (setting [4]) were 72%, 4% and 79%, respectively.
In the case of `COc1ccc2c3ccnc(C)c3n(CC(N)=O)c2c1` [AnnH28, 2-(7-Methoxy-1-methyl-9H-pyrido[3,4-b]indol-9-yl)-N-acetamide], the remaining activity at 1 µM worked out at 131% in assay [1] (setting [4]) and 89% in assay [3] (setting [4]).
`CNC(=O)Cn1c2cc(OC)ccc2c2ccnc(C)c21` [AnnH30, 2-(7-Methoxy-1-methyl-9H-pyrido[3,4-b]indol-9-yl)-N-methylacetamide]: the remaining activity at 1 µM in assay [1] (setting [4]) came to 24%; in assay [2] (setting [4]) it was 64%; in assay [3] (setting [4]), 87%.
`CCOC(=O)CCn1c2cc(OC)ccc2c2ccnc(C)c21` [AnnH32, Ethyl 3-(7-Methoxy-1-methyl-9H-pyrido[3,4-b]indol-9-yl)propanoate]: the values for the remaining activity at 1 µM in assay [1], in assay [2] and in assay [3] were 105%, 12% and 44%, respectively.
`COc1ccc2c3ccnc(C)c3n(CC(=O)N(C)C)c2c1` [AnnH34, 2-(7-Methoxy-1-methyl-9H-pyrido[3,4-b]indol-9-yl)-N,N-dimethylacetamide]: the remaining activity at 1 µM in assay [1] (setting [4]) is 130%; in assay [2] (setting [4]), 75%; in assay [3] (setting [4]), 78%.
On to `COc1ccc(Cn2c3cc(OC)ccc3c3ccnc(C)c32)cc1` [AnnH35, 7-Methoxy-9-(4-methoxybenzyl)-1-methyl-9H-pyrido[3,4-b]indole], for which the values for the remaining activity at 1 µM in assay [1] (setting [4]), in assay [2] (setting [4]) and in assay [3] (setting [4]) were 128%, 100% and 80%, respectively.
As for `Cc1nccc2c1[nH]c1ccccc12` [harmane, reference compound], the remaining activity at 1 µM is 18% in assay [1] and 97% in assay [2].
